Source: patent US11958831B2, “Pyrazole compounds, pharmaceutical compositions thereof and use thereof” (ARTIVILA (SHENZHEN) INNOVATION CENTER, LTD., priority 2018, dated 2024)

Experiments:
IRAK4 kinase = IRAK4 kinase (Homo sapiens (Human), UniProt Q9NWZ3); assay: IRAK4 kinase activity assay (mobility shift, Km ATP); format: biochemical; conditions: Km ATP (15.6 μM ATP), 1 nM IRAK4, 60 min room temperature
Description: Inhibitory activity (IC50) of the compounds against IRAK4 kinase under Km ATP was detected through mobility spectrum analysis (MSA). IRAK4 kinase was purchased from Carna (Cat. No.: 09-145, batch No.: 14CBS-0020H), and Kinase Substrate 8 was purchased from GL Biochem (Cat. No.: 112396, batch No.: P171207-MJI112396).
The compounds were prepared with DMSO to 100 times the final reaction concentration and diluted to 10 concentrations in sequence at a 3-fold dilution ratio starting from 1 μM. Then 0.25 μL was transferred to a 384-well plate using Echo550. A 1× kinase buffer (50 mM HEPES, pH=7.5, 0.0015% Brij-35, 10 mM MgCl2, 2 mM DTT) was used to prepare a kinase solution of 2.5 times the final concentration. Then 10 μL of the kinase solution of 2.5 times the final concentration was added to each compound well, shaken and mixed uniformly, and incubated at room temperature for 10 min. A 1× kinase buffer was used to prepare a mixed solution of ATP and substrate Kinase Substrate 8 with a concentration of 25/15 times the final concentration. 15 μL of the mixed solution of ATP and the substrate with a concentration of 25/15 times the final concentration were added to each well (the final concentration of IRAK4 kinase was 1 nM, the final concentration of the substrate was 3 μM, and the final concentration of ATP was 15.6 μM), shaken and mixed uniformly, and reacted at room temperature for 60 min. Finally, 30 μL of stopping solution (100 mM HEPES, pH=7.5, 0.0015% Brij-35, 0.2% Coating Reagent #3, 50 mM EDTA) was added to terminate the reaction. CaliperEZ Reader II was used to read data about conversion rates that was then converted into data about inhibition rates. According to the data about the inhibition rate at each concentration, the half maximal inhibitory concentration (IC50) (Table 1) was calculated by a Logit method.

[1] = test system: TNFα secretion in THP-1 cells; assay: Cellular activity assay: LPS-stimulated TNFα secretion in THP-1 cells (ELISA); format: cell-based; conditions: Homo sapiens, LPS 1 μg/mL, 4.5 h, read-out: IC50 inhibiting TNFα secretion in THP-1 cells stimulated by LPS
Description: Inhibition of IRAK4 by the compounds of the present application was evaluated in THP-1 cells for cellular activity. The stimulus used in this experiment was LPS. LPS is a TLR4 agonist that stimulates the secretion of TNFα through TLR-IRAK4 signaling pathway in the THP-1 cells. Once the signaling pathway is inhibited by IRAK4 inhibitors, the production of TNFα is inhibited. In this experiment, the secretion of TNFα was detected by ELISA.
150 μL of RPMI-1640 medium (Gibco, catalog No.: 11875-085) solution containing 10000 THP-1 cells were added to each well of a 96-well plate and then 25 μL of a test compound solution of 8 times the final concentration (starting from […], 3-fold dilution, 8 concentrations, each concentration containing 4% DMSO RPMI-1640 medium) were added, and they were mixed uniformly and incubated at 37° C. for 30 min. 25 μL of RPMI-1640 medium solution containing LPS were added to each well (the final LPS concentration was 1 μg/mL and the final DMSO concentration was 0.5%), mixed uniformaly, and incubated at 37° C. for 4.5 h. The 96-well plate was rotated at 2000 rpm for 5 min, then 50 μL of supernatant was taken, and the TNFα content in the supernatant was determined with a human ELISA kit (Life Technologies, catalog No.: KHC3011). The IC50 (Table 2) of the compound was calculated by XL-Fit.

Sequence of IRAK4 kinase (Q9NWZ3 whole entry): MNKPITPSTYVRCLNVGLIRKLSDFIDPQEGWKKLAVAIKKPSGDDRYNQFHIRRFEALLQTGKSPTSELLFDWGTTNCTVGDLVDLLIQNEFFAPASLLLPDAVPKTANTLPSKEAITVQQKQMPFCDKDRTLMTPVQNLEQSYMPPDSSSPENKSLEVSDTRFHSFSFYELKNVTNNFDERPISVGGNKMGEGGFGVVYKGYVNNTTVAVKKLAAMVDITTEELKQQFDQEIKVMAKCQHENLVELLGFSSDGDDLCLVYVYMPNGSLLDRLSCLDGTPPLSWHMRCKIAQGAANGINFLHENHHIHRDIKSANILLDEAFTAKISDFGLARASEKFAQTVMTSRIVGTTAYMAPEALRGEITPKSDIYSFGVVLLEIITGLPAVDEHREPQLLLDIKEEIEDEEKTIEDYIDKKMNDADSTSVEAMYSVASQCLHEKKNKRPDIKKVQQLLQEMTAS

Row | SMILES | IC50 (IRAK4 kinase) [nM] | IC50 [1] [nM]
1 | O=C(Nc1cn(C2CN(C3CCN(C(=O)CO)CC3)C2)nc1C(F)F)c1cccc(-c2cnn(CC(F)F)c2)n1 [Example 2, 6-(1-(2,2-Difluoroethyl)-1H-pyrazol-4-yl)-N-(3-(difluoromethyl)-1-(1-(1-(2-hydroxyacetyl)piperidin-4-yl)azetidin-3-yl)-1H-pyrazol-4-yl)-2-picolinamide] | 0.99 | 27
2 | CC(C)(O)C(=O)N1CCC(N2CC(n3cc(NC(=O)c4cccc(-c5cc[nH]n5)n4)c(C(F)F)n3)C2)CC1 [Example 41, N-(3-(difluoromethyl)-1-(1-(1-(2-hydroxy-2-methylpropionyl)piperidin-4-yl)azetidin-3-yl)-1H-pyrazol-4-yl)-6-(1H-pyrazol-3-yl)-2-picolinamide] | 0.43 | 23
3 | C[C@@H](O)C(=O)N1CCC(N2CC(n3cc(NC(=O)c4cccc(-c5cnn(CC(F)F)c5)n4)c(C(F)F)n3)C2)CC1 [Example 35, (R)-6-(1-(2,2-difluoroethyl)-1H-pyrazol-4-yl)-N-(3-(difluoromethyl)-1-(1-(1-(2-hydroxypropionyl)piperidin-4-yl)azetidin-3-yl)-1H-pyrazol-4-yl)-2-picolinamide] | 1.3 | 48
4 | O=C(Nc1cn(C2CN(C3CCN(C(=O)CO)CC3)C2)nc1C(F)F)c1cccc(-c2cnn(CC(F)(F)F)c2)n1 [Example 4, N-(3-(difluoromethyl)-1-(1-(1-(2-hydroxyacetyl)piperidin-4-yl)azetidin-3-yl)-1H-pyrazol-4-yl)-6-(1-(2,2,2-trifluoroethyl)-1H-pyrazol-4-yl)-2-picolinamide] | 0.68 | 33
5 | CC(C)(O)C(=O)N1CCC(N2CC(n3cc(NC(=O)c4cccc(-c5cnn(CC(F)F)c5)n4)c(C(F)F)n3)C2)CC1 [Example 36, 6-(1-(2,2-Difluoroethyl)-1H-pyrazol-4-yl)-N-(3-(difluoromethyl)-1-(1-(1-(2-hydroxy-2-methylpropionyl)piperidin-4-yl)azetidin-3-yl)-1H-pyrazol-4-yl)-2-picolinamide] | 0.96 | 50
6 | CC(C)(C#N)n1cc(-c2cccc(C(=O)Nc3cn(C4CN(C5CCN(C(=O)CO)CC5)C4)nc3C(F)F)n2)cn1 [Example 43, 6-(1-(2-Cyanopropan-2-yl)-1H-pyrazol-4-yl)-N-(3-(difluoromethyl)-1-(1-(1-(2-hydroxyacetyl)piperidin-4-yl)azetidin-3-yl)-1H-pyrazol-4-yl)-2-picolinamide] | 0.97 | 42
7 | CC(=O)N1CCC(N2CC(n3cc(NC(=O)c4cccc(-c5cnn(C(C)(C)C#N)c5)n4)c(C(F)F)n3)C2)CC1 [Example 12, N-(1-(1-(1-acetylpiperidin-4-yl)azetidin-3-yl)-3-(difluoromethyl)-1H-pyrazol-4-yl)-6-(1-(2-cyanopropan-2-yl)-1H-pyrazol-4-yl)-2-picolinamide] | 0.91 | 43
8 | CC(=O)N1CCC(N2CC(n3cc(NC(=O)c4cccc(-c5cnn(C(C)(C)CN)c5)n4)c(C(F)F)n3)C2)CC1 [Example 13, N-(1-(1-(1-acetylpiperidin-4-yl)azetidin-3-yl)-3-(difluoromethyl)-1H-pyrazol-4-yl)-6-(1-(1-amino-2-methylpropan-2-yl)-1H-pyrazol-4-yl)-2-picolinamide] | 0.73 | 25
9 | CC(=O)N1CCC(N2CC(n3cc(NC(=O)c4cccc(-c5cc[nH]n5)n4)c(C(F)F)n3)C2)CC1 [Example 24, N-(1-(1-(1-acetylpiperidin-4-yl)azetidin-3-yl)-3-(difluoromethyl)-1H-pyrazol-4-yl)-6-(1H-pyrazole-3-yl)-2-picolinamide] | 0.59 | 20
10 | CC(=O)N1CCC(N2CC(n3cc(NC(=O)c4cccc(-c5cnn(CC(F)(F)F)c5)n4)c(C(F)F)n3)C2)CC1 [Example 3, N-(1-(1-(1-acetylpiperidin-4-yl)azetidin-3-yl)-3-(difluoromethyl)-1H-pyrazol-4-yl)-6-(1-(2,2,2-trifluoroethyl)-1H-pyrazol-4-yl)-2-picolinamide] | 0.87 | 35
11 | CC(=O)N1CCC(N2CC(n3cc(NC(=O)c4cccc(-c5cnn(CC(F)F)c5)n4)c(C(F)F)n3)C2)CC1 [Example 1, N-(1-(1-(1-acetylpiperidin-4-yl)azetidin-3-yl)-3-(difluoromethyl)-1H-pyrazol-4-yl)-6-(1-(2,2-difluoroethyl)-1H-pyrazol-4-yl)-2-picolinamide] | 1.2 | 29
12 | C[C@@H](O)C(=O)N1CCC(N2CC(n3cc(NC(=O)c4cccc(-c5cnn(CC(F)(F)F)c5)n4)c(C(F)F)n3)C2)CC1 [Example 31, (R)—N-(3-(difluoromethyl)-1-(1-(1-(2-hydroxypropionyl)piperidin-4-yl)azetidin-3-yl)-1H-pyrazol-4-yl)-6-(1-(2,2,2-trifluoroethyl)-1H-pyrazol-4-yl)-2-picolinamide] | 0.79 | 42
13 | C[C@H](O)C(=O)N1CCC(N2CC(n3cc(NC(=O)c4cccc(-c5cnn(CC(F)F)c5)n4)c(C(F)F)n3)C2)CC1 [Example 34, (S)-6-(1-(2,2-difluoroethyl)-1H-pyrazol-4-yl)-N-(3-(difluoromethyl)-1-(1-(1-(2-hydroxypropionyl)piperidin-4-yl)azetidin-3-yl)-1H-pyrazol-4-yl)-2-picolinamide] | 1 | 46
14 | O=C(Nc1cn(C2CN(C3CCN(C(=O)CO)CC3)C2)nc1C(F)F)c1cccc(-c2cc[nH]n2)n1 [Example 27, N-(3-(difluoromethyl)-1-(1-(1-(2-hydroxyacetyl)piperidin-4-yl)azetidin-3-yl)-1H-pyrazol-4-yl)-6-(1H-pyrazol-3-yl)-2-picolinamide] | 0.51 | 18
15 | C[C@@H](O)C(=O)N1CCC(N2CC(n3cc(NC(=O)c4cccc(-c5cc[nH]n5)n4)c(C(F)F)n3)C2)CC1 [Example 40, (R)—N-(3-(difluoromethyl)-1-(1-(1-(2-hydroxypropionyl)piperidin-4-yl)azetidin-3-yl)-1H-pyrazol-4-yl)-6-(1H-pyrazol-3-yl)-2-picolinamide] | 0.59 | 26
16 | CC(C)(O)C(=O)N1CCC(N2CC(n3cc(NC(=O)c4cccc(-c5cnn(CC(F)(F)F)c5)n4)c(C(F)F)n3)C2)CC1 [Example 32, N-(3-(difluoromethyl)-1-(1-(1-(2-hydroxy-2-methylpropionyl)piperidin-4-yl)azetidin-3-yl)-1H-pyrazol-4-yl)-6-(1-(2,2,2-trifluoroethyl)-1H-pyrazol-4-yl)-2-picolinamide] | 0.97 | 52
17 | CC(=O)N1CCC(N2CC(n3cc(NC(=O)c4cccc(-c5cnn(C6(C#N)CCC6)c5)n4)c(C(F)F)n3)C2)CC1 [Example 10, N-(1-(1-(1-acetylpiperidin-4-yl)azetidin-3-yl)-3-(difluoromethyl)-1H-pyrazol-4-yl)-6-(1-(1-cyanocyclobutyl)-1H-pyrazol-4-yl)-2-picolinamide] | 2 | 
18 | CC(=O)N1CCC(N2CC(n3cc(NC(=O)c4cccc(-c5cnn(C6(CN)CCC6)c5)n4)c(C(F)F)n3)C2)CC1 [Example 11, N-(1-(1-(1-acetylpiperidin-4-yl)azetidin-3-yl)-3-(difluoromethyl)-1H-pyrazol-4-yl)-6-(1-(1-(aminomethyl)cyclobutyl)-1H-pyrazol-4-yl)-2-picolinamide] | 1.6 | 
19 | CC(=O)N1CCC(N2CC(n3cc(NC(=O)c4cccc(-c5cnn(C(F)F)c5)n4)c(C(F)F)n3)C2)CC1 [Example 5, N-(1-(1-(1-acetylpiperidin-4-yl)azetidin-3-yl)-3-(difluoromethyl)-1H-pyrazol-4-yl)-6-(1-(difluoromethyl)-1H-pyrazol-4-yl)-2-picolinamide] | 4.3 | 
